# Read-outs that look alike come from different tables or passages of the source.
# Assays:
# E. coli = assay: Antibacterial activity: Minimum Inhibitory Concentration; format: cell-based, Escherichia coli ATCC 8739; details: 24 hours; for MIC: Escherichia coli
# Protocol: (§1) The antimicrobial activity was determined by inoculation of the test microorganism into suitable growth media containing solutions of the compounds at concentrations of 100, 50, 10, 5, 1.0, 0.5 and 0.1 μg/ml. The reference antibiotics used were Gentamicin for the antibacterial tests and Amphotericin B for the antimycotic and antifungal tests. After incubation the antimicrobial activity was recorded as the Minimal Inhibitory Concentration (M.I.C.), i.e., the lowest concentration preventing macroscopically visible growth, for each test compound against each organism.
# (§2) An initial solution of each formula (I) compound to be tested in sterile distilled water was prepared at a concentration of 1000 μg/ml. With appropriate dilutions using sterile distilled water, additional solutions were prepared at concentrations of 500, 100, 50, 10, 5 and 1 μg/ml.
# (§3) They were cultured and maintained on Tryptone Soy Agar (Oxoid CM 131), with the addition of 10% horse blood for the S. pyogenes.
# (§4) To prepare the organisms as inocula for the test, slopes of this medium were streaked with the organisms and incubated at 37° C. for 24 hours. 4.5 Ml volumes of Brian-Heart Infusion Broth (Oxoid CM 225) were then inoculated with a platinum loop from the agar slope cultures and incubated for 24 hours at 37° C. The final inocula were then prepared by adding 0.1 ml aliquots of the Brain-Heart Infusion Broth cultures to 100 ml volumes of sterile physiological saline.
# (§5) (a) For the test on each of the bacterial strains and each of the test and reference compounds, a series of 8 tubes containing 4.5 ml volumes of Brain-Heart Infusion Broth (Oxoid CM 225) were prepared. To 7 of these were added 0.5 ml volumes of the final solutions of the test compouns, giving final concentrations in the broths of 100, 50, 10, 5, 1.0, 0.5 and 0.1 μg/ml. To the eighth tube in each series was added 0.5 ml of the solvent used and diluted as for the preparation of the 1000 μg/ml solution of the compound. This tube was used as the growth control. The tubes were inoculated with 0.02 ml aliquots of the inocula prepared in accordance with "(a) Bacteria" above, and incubated at 37° C. for 24 hours. The tubes were then examined for evidence of bacterial growth as shown by turbidity of the medium and the lowest concentration of the test compound which prevented bacterial growth was recorded as the Minimal Inhibitory Concentration. This test procedure was carried out on two separate days.
# M. canis = assay: Antifungal activity: Minimum Inhibitory Concentration; format: cell-based, Microsporum canis NCPF 351; details: M. canis, 27° C., one week; for MIC: Microsporum canis, read-out: Minimum Inhibitory Concentration
# Protocol: as §1, §2
# The A. corymbifera, A. fumigatus, S. schenkii, T. rubrum, T. mentagrophytes, M. canis and P. verrucosa strains were all maintained on Sabouraud-Dextrose Agar (Oxoid CM 41) by incubating for 14 days at 27° C. To prepare the inocula 30 ml volumes of Sabouraud-Liquid medium (Oxoid CM 147) were inoculated from the agar cultures and incubated at 27° C. until heavy uniform growth resulted. The mycelial growth was then broken up by shaking with glass beads.
# 1 Ml aliquots were removed from each of the cultures for the purpose of making viable counts and the cultures were then held at 4° C. The viable counts were made by preparing serial ten-fold dilutions of the cultures in sterile physiological saline and spreading on plates of Sabouraud-Dextrose Agar (Oxoid CM 41) which were then incubated at 27° C. for 14 days. When the viable counts had confirmed that each of the inocula contained approximately 10^6 colony forming units (C.F.U.) per ml the cultures were withdrawn from the refrigerator and used as the inocula for the tests.
# (c) For the tests on each of the remaining seven strains and each of the test and reference compounds, a series of 8 tubes containing 4.5 ml volumes of Sabouraud-Liquid Medium (Oxoid CM 147) were prepared. To 7 of these were added 0.5 ml volumes of the final solutions of the test compounds, giving final concentrations in the broths of 100, 50, 10, 5, 1.0, 0.5 and 0.1 μg/ml. To the eighth tube in each series was added 0.5 ml of the solvent used and diluted as for the preparation of the 500 μg/ml solution of the compound. This tube was used as a growth control. The tubes were then inoculated with 0.1 ml aliquots of the inocula prepared as in "(b) Fungi" above. The tubes were then incubated at 27° C. with continuous shaking for a period of one week. The tubes were then examined for evidence of growth as shown by the presence of mycelial growth in the medium and the lowest concentration of the test compound which prevented fungal growth was recorded as the Minimal Inhibitory Concentration. This test procedure was carried out on two separate days.
# S. pyogenes = assay: Antibacterial activity: Minimum Inhibitory Concentration; format: cell-based, Streptococcus pyogenes NCTC 8198; details: 24 hours; for MIC: Streptococcus pyogenes
# Protocol: as §1, §2, §3, §4, §5
# [1] = test system: Algae (diatoms, green and blue algae); assay: Algicidal activity in 350 liter concrete pools under outdoor conditions; details: for killing at 1 µg/mL: 1 mg/l water; for killing at 2 µg/mL: 2 mg/l water; for killing at 4 µg/mL: 4 mg/l water
# Source text: A comparison of the algicidic activity of the preferred compound, 1-hexadecyl-2,3,5-trimethyl-pyrazolium methosulfate, with said standard is shown in Table 4.
# Results given above are mean values from 2 replicates of
# Test conditions: Severe with high infection pressure after artificial
# algae inoculation in 350 liter concrete pools under outdoor conditions.
# Stains included: Green algae: Chlorella, Zygnema, Hormidium + Scenedesmus
# Blue algae: Phormidium species
# Diatoms: Nitzschea pallea
# Water temperature: Day: 21° C., night: 18°-20° C.
# [2] = mean over weeks 1-6, read-out: % algicidal activity, --x (mean)
# [3] = 168 h, 1 week after treatment, mean of 2 replicates, read-out: % algicidal activity
# [4] = 336 h, 2 weeks after treatment, mean of 2 replicates, read-out: % algicidal activity
# [5] = 504 h, 3 weeks after treatment, mean of 2 replicates, read-out: % algicidal activity
# [6] = 672 h, 4 weeks after treatment, mean of 2 replicates, read-out: % algicidal activity
# [7] = 840 h, 5 weeks after treatment, mean of 2 replicates, read-out: % algicidal activity
# [8] = 1008 h, 6 weeks after treatment, mean of 2 replicates, read-out: % algicidal activity
compound,measurement,setting,value
"CCCCCCCCCCCCCCCC[n+]1c(C)cc(C)n1C.Cc1ccc(S(=O)(=O)[O-])cc1 [Example 6-C, 1-hexadecyl-2,3,5-trimethylpyrazolium p-toluene sulfonate]",MIC,"E. coli; Day 1, 37° C.",10 µg/mL
same,MIC,"E. coli; Day 2, 37° C.",10 µg/mL
same,Minimum Inhibitory Concentration,M. canis; Day 2,5 µg/mL
"CCCCCCCCCCCCCCCCn1ccc[n+]1C [Example 3-D, 1-hexadecyl-2-methyl-pyrazolium methosulfate]",MIC,"E. coli; Day 1, 37° C.",10 µg/mL
same,MIC,"E. coli; Day 2, 37° C.",5 µg/mL
same,MIC,"S. pyogenes; Day 1, 37° C.",0.5 µg/mL
same,MIC,"S. pyogenes; Day 2, 37° C.",0.5 µg/mL
same,MIC,M. canis; Day 1,5 µg/mL
same,MIC,M. canis; Day 2,5 µg/mL
"CCCCCCCCCCCCCCn1ccc[n+]1C [Example 3-G, 2-methyl-1-tetradecyl-pyrazolium methosulfate]",MIC,"E. coli; Day 1, 37° C.",10 µg/mL
same,MIC,"E. coli; Day 2, 37° C.",10 µg/mL
same,MIC,"S. pyogenes; Day 1, 37° C.",0.5 µg/mL
same,MIC,"S. pyogenes; Day 2, 37° C.",0.5 µg/mL
same,MIC,M. canis; Day 1,10 µg/mL
same,MIC,M. canis; Day 2,5 µg/mL
"2,3(5)-dimethyl-1-hexadecyl-pyrazolium methosulfate [Example 9]",Minimum Inhibitory Concentration,"E. coli; Day 1, 37° C.",50 µg/mL
same,Minimum Inhibitory Concentration,"E. coli; Day 2, 37° C.",10 µg/mL
same,Minimum Inhibitory Concentration,"S. pyogenes; Day 1, 37° C.",0.5 µg/mL
same,Minimum Inhibitory Concentration,"S. pyogenes; Day 2, 37° C.",0.5 µg/mL
same,Minimum Inhibitory Concentration,M. canis; Day 1,5 µg/mL
same,Minimum Inhibitory Concentration,M. canis; Day 2,5 µg/mL
"CCCCCCCCCCCCCCCCn1c(C)cc(C)[n+]1C [Example 2, 1-hexadecyl-2,3,5-trimethyl-pyrazolium methosulfate]",MIC,"E. coli; Day 1, 37° C.",10 µg/mL
same,MIC,"E. coli; Day 2, 37° C.",5 µg/mL
same,MIC,"S. pyogenes; Day 1, 37° C.",0.5 µg/mL
same,MIC,"S. pyogenes; Day 2, 37° C.",0.5 µg/mL
same,killing at 1 µg/mL,[1]; [2],96%
same,killing at 2 µg/mL,[1]; [2],99%
same,killing at 4 µg/mL,[1]; [2],100%
same,killing at 1 µg/mL,[1]; [3],100%
same,killing at 2 µg/mL,[1]; [3],100%
same,killing at 4 µg/mL,[1]; [3],100%
same,killing at 1 µg/mL,[1]; [4],100%
same,killing at 2 µg/mL,[1]; [4],100%
same,killing at 4 µg/mL,[1]; [4],100%
same,killing at 2 µg/mL,[1]; [5],100%
same,killing at 4 µg/mL,[1]; [5],100%
same,killing at 1 µg/mL,[1]; [6],96%
same,killing at 2 µg/mL,[1]; [6],100%
same,killing at 4 µg/mL,[1]; [6],100%
same,killing at 1 µg/mL,[1]; [7],93%
same,killing at 2 µg/mL,[1]; [7],100%
same,killing at 4 µg/mL,[1]; [7],100%
same,killing at 1 µg/mL,[1]; [8],88%
same,killing at 2 µg/mL,[1]; [8],98%
same,killing at 4 µg/mL,[1]; [8],100%
same,MIC,M. canis; Day 1,10 µg/mL
same,MIC,M. canis; Day 2,5 µg/mL
"CCCCCCCCCCCCCC[n+]1c(C)cc(C)n1Cc1ccc([N+](=O)[O-])cc1.[Br-] [Example 6-D, 3,5-dimethyl-2(4-nitrobenzyl)-1-tetradecyl-pyrazolium bromide]",MIC,"E. coli; Day 1, 37° C.",50 µg/mL
same,MIC,"E. coli; Day 2, 37° C.",100 µg/mL
same,MIC,"S. pyogenes; Day 1, 37° C.",0.5 µg/mL
same,MIC,"S. pyogenes; Day 2, 37° C.",1 µg/mL
same,MIC,M. canis; Day 1,10 µg/mL
same,MIC,M. canis; Day 2,5 µg/mL
"CCCCCCCCCCCC[n+]1c(C)cc(C)n1Cc1ccc(Cl)cc1Cl.[Br-] [Example 6-B, 2-(2,4-dichlorobenzyl)-3,5-dimethyl-1-dodecyl-pyrazolium bromide]",MIC,"E. coli; Day 1, 37° C.",10 µg/mL
same,MIC,"E. coli; Day 2, 37° C.",5 µg/mL
same,MIC,"S. pyogenes; Day 1, 37° C.",0.5 µg/mL
same,MIC,"S. pyogenes; Day 2, 37° C.",0.5 µg/mL
same,MIC,M. canis; Day 1,5 µg/mL
same,MIC,M. canis; Day 2,5 µg/mL
"CCCCCCCCCCCCn1ccc[n+]1C [Example 3-E, 1-dodecyl-2-methy-pyrazolium methosulfate]",MIC,"E. coli; Day 1, 37° C.",50 µg/mL
same,MIC,"E. coli; Day 2, 37° C.",50 µg/mL
same,MIC,"S. pyogenes; Day 1, 37° C.",5 µg/mL
same,MIC,"S. pyogenes; Day 2, 37° C.",5 µg/mL
same,MIC,M. canis; Day 1,10 µg/mL
same,MIC,M. canis; Day 2,10 µg/mL
"C=CCn1c(C)cc(C)[n+]1CCCCCCCCCCCCCCCC.[Br-] [Example 7, 2-allyl-3,5-dimethyl-1-hexadecyl-pyrazoliumbromide]",MIC,"E. coli; Day 1, 37° C.",10 µg/mL
same,MIC,"E. coli; Day 2, 37° C.",5 µg/mL
same,MIC,"S. pyogenes; Day 1, 37° C.",0.5 µg/mL
same,MIC,"S. pyogenes; Day 2, 37° C.",0.5 µg/mL
same,MIC,M. canis; Day 1,5 µg/mL
same,MIC,M. canis; Day 2,10 µg/mL
"CCCCCCCCCCCC[n+]1c(C)cc(C)n1Cc1ccc(Cl)cc1.[Br-] [Example 6-E, 2-(p-chlorobenzyl)-3,5-dimethyl-1-dodecyl-pyrazolium bromide]",MIC,"E. coli; Day 1, 37° C.",10 µg/mL
same,MIC,"E. coli; Day 2, 37° C.",10 µg/mL
same,MIC,"S. pyogenes; Day 1, 37° C.",0.5 µg/mL
same,MIC,"S. pyogenes; Day 2, 37° C.",0.5 µg/mL
same,MIC,M. canis; Day 1,1 µg/mL
same,MIC,M. canis; Day 2,5 µg/mL
"2,3(5)-dimethyl-1-dodecyl-pyrazolium methosulfate [Example 8-A]",Minimum Inhibitory Concentration,"E. coli; Day 1, 37° C.",50 µg/mL
same,Minimum Inhibitory Concentration,"E. coli; Day 2, 37° C.",50 µg/mL
same,Minimum Inhibitory Concentration,"S. pyogenes; Day 1, 37° C.",5 µg/mL
same,Minimum Inhibitory Concentration,"S. pyogenes; Day 2, 37° C.",5 µg/mL
same,Minimum Inhibitory Concentration,M. canis; Day 1,5 µg/mL
same,Minimum Inhibitory Concentration,M. canis; Day 2,1 µg/mL
"CCCCCCCCCCCCn1c(C)cc(C)[n+]1C [Example 1, 1-dodecyl-2,3,5-trimethyl-pyrazolium methosulfate]",MIC,"E. coli; Day 1, 37° C.",50 µg/mL
same,MIC,"E. coli; Day 2, 37° C.",100 µg/mL
same,MIC,"S. pyogenes; Day 1, 37° C.",1 µg/mL
same,MIC,"S. pyogenes; Day 2, 37° C.",0.5 µg/mL
same,MIC,M. canis; Day 1,5 µg/mL
same,MIC,M. canis; Day 2,10 µg/mL
